Test results published in patent US20140294856A1, “COMBINATION TREATMENT COMPRISING A HDAC6 INHIBITOR AND AN AKT INHIBITOR” (priority 2011, published 2014).
Where two headings read alike, the source gives them in different places. One block for each molecule: values may come before it.

Assays:
HCT116 cells [1] = assay: Combination studies, SRB assay, combination index (CalcuSyn); assay type: cell-based, human
HCT116 cells [2] = assay: Phospho-AKT levels by western blotting; assay type: cell-based, human; conditions: for IC50: Homo sapiens, HCT-116
[3] = test system: HCT116 human colon cancer xenograft; conditions: BEZ-235 alone 20 mg/kg/d
HCT116 tumours = assay: Phospho-AKT levels in HCT116 tumours; assay type: in vivo, mice; conditions: single injection 25 mg/kg
[4] = Cytotoxicity of compounds of the invention (data not shown); assay type: cell-based
Description: HDAC-C1B also appears to be a promising drug candidate.

HCT116 cells [5] = assay: Acetylation biomarkers by western blotting (with washout); assay type: cell-based, human
Protocol: FIG. 1. HDAC-C1A irreversible activity. A. […] inhibitory activity of HDAC-C1A was tested using HeLa nuclear extracts and compared to the negative (reversible) control HDAC-C1B. B Growth inhibitory effect of the different compounds in HCT-116 cells at indicated time and compared to growth inhibitory after 72 hours of incubation.
HSP90 protein expression was not altered (FIG. 2).

in vitro = conditions: human, Caco-2
MRP1 = MRP1 (Homo sapiens, UniProt P33527); assay: Impact of MRP1 on cytotoxicity, MK-571 pre-treatment in A549 cells
Sequence of MRP1 (P33527 whole entry): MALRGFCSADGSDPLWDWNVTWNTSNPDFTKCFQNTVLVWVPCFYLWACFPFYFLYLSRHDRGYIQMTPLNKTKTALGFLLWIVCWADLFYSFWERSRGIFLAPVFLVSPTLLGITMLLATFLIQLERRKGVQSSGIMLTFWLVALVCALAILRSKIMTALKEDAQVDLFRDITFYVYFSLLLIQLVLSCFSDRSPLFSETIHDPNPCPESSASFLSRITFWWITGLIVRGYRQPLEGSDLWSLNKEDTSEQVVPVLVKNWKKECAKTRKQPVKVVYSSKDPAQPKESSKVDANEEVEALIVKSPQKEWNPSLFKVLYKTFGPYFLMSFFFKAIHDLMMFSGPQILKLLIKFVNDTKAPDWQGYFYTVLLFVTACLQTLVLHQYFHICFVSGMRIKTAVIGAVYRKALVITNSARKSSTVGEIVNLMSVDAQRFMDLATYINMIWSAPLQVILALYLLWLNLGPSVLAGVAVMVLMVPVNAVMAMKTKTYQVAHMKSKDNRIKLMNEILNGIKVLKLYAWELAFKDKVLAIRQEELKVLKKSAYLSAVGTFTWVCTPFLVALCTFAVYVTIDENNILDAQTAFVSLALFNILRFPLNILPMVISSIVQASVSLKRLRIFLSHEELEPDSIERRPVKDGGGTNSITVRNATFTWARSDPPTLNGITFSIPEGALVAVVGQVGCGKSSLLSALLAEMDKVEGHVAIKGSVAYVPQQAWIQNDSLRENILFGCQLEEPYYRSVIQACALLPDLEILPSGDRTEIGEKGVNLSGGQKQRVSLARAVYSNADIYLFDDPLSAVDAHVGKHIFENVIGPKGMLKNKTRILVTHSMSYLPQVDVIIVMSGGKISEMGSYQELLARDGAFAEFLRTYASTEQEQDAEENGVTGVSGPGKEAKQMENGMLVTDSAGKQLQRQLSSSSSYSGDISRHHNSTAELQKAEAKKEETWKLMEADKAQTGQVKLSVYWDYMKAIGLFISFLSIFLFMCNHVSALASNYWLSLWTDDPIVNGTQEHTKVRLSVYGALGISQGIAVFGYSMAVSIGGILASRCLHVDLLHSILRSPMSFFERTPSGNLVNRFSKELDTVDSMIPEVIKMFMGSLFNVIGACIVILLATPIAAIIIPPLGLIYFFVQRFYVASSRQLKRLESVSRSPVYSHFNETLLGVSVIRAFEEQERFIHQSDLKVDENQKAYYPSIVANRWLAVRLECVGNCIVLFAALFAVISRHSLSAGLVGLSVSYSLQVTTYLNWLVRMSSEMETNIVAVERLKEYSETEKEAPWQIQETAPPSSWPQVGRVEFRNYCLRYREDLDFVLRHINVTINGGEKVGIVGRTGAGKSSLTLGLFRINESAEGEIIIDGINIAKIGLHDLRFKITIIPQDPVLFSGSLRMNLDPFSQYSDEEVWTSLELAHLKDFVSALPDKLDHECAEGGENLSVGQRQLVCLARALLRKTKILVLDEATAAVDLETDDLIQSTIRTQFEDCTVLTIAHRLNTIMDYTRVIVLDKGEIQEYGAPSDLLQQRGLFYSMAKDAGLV

A2780 cells = assay: Impact of glutathione co-incubation on survival; conditions: compound 1 μM
HCT116 cells [6] = assay: Acetylated PTEN and PTEN expression; assay type: cell-based, human
Protocol: FIG. 12. HDAC-C1A treatment is associated with an increase of phopsho-AKT that can be reversed by PI3K/AKT/mTOR inhibitors. […] Similarly, Phospho-Pras 40 seems to increase following treatment with HDAC-C1A. Densitometry data could reinforce this statement (ratio between the total form and the Phospho form of Pras40 that decreases at 24 hours). […] No difference could be seen in endometrial cancer cell line, […]. C. […] E. BEZ-235 can fully reverse the increase of Phospho-AKT mediated by HDAC-C1A in HCT-116 cells. BEZ-235 and HDAC-C1A were co-incubated at the indicated time and concentrations.
FIG. 17. A. Dose and time impact of Tubastatin A on acetylated form of tubulin and histones H3 and H4 and on phospho-AKT levels that could be reversed with BEZ-235 in HCT-116 cells. […] HCT116 were immunoprecipitation with PTEN and stained with HDAC1 or HDAC6, immunoprecipitation with HDAC6 and stained with PTEN. No HDAC1 could have been detected in contrast with HDAC6. There was no effect of the different inhibitors on the different protein levels.
PTEN protein expression was not altered. In vivo, on the gene array, the mRNA levels of PTEN were not altered in HCT116 xenograft model following treatment with HDAC-C1A after 1 and 14 days when compared with vehicle treated group (FIG. 7).
We have shown that HDAC-C1A is associated with increased acetylation of α-tubulin, acetyl HSP90 and acetyl PTEN with only a minor effect on the regulation of the genes (less than 0.7% of the genes have been de-regulated after 14 days of treatment in vivo). We believe that the acetylation of PTEN, via the inhibition of HDAC6, leads to an increase of P-AKT. […] No effect of BEZ235 could be seen on the acetylated status of α-tubulin and histones H3 and H4.

[7] = test system: CHO cells deficient in DNA repair; assay: Growth inhibition in cell lines deficient in DNA repair machinery; assay type: cell-based
A549 cells = assay: Impact of BSO (GSH depletion) on growth inhibition, SRB assay; assay type: cell-based; conditions: 10 μM BSO for 24 hours
ABCG2 = target: T1, ABCG2 (Homo sapiens, UniProt Q9UNQ0)
T1 sequence (Q9UNQ0 1-655): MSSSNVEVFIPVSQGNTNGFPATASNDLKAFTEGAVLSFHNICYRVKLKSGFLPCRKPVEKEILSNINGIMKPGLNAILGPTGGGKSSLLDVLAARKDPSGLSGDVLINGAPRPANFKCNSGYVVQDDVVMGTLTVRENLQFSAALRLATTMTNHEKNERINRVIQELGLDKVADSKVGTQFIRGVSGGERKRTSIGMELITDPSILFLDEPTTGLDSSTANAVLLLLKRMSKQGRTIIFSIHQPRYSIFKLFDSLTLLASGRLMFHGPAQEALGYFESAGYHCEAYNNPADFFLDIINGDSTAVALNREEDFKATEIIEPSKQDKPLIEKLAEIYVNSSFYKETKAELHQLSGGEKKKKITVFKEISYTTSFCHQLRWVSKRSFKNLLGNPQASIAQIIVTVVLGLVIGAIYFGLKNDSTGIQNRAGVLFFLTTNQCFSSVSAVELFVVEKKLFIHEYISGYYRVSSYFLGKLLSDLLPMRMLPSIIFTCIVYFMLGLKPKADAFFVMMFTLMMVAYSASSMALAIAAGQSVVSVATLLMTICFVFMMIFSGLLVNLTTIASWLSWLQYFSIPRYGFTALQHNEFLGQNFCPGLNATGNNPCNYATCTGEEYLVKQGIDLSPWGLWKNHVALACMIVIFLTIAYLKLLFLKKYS

P-gp = P-gp (Homo sapiens, UniProt P08183); conditions: mouse
Sequence of P-gp (P08183 whole entry): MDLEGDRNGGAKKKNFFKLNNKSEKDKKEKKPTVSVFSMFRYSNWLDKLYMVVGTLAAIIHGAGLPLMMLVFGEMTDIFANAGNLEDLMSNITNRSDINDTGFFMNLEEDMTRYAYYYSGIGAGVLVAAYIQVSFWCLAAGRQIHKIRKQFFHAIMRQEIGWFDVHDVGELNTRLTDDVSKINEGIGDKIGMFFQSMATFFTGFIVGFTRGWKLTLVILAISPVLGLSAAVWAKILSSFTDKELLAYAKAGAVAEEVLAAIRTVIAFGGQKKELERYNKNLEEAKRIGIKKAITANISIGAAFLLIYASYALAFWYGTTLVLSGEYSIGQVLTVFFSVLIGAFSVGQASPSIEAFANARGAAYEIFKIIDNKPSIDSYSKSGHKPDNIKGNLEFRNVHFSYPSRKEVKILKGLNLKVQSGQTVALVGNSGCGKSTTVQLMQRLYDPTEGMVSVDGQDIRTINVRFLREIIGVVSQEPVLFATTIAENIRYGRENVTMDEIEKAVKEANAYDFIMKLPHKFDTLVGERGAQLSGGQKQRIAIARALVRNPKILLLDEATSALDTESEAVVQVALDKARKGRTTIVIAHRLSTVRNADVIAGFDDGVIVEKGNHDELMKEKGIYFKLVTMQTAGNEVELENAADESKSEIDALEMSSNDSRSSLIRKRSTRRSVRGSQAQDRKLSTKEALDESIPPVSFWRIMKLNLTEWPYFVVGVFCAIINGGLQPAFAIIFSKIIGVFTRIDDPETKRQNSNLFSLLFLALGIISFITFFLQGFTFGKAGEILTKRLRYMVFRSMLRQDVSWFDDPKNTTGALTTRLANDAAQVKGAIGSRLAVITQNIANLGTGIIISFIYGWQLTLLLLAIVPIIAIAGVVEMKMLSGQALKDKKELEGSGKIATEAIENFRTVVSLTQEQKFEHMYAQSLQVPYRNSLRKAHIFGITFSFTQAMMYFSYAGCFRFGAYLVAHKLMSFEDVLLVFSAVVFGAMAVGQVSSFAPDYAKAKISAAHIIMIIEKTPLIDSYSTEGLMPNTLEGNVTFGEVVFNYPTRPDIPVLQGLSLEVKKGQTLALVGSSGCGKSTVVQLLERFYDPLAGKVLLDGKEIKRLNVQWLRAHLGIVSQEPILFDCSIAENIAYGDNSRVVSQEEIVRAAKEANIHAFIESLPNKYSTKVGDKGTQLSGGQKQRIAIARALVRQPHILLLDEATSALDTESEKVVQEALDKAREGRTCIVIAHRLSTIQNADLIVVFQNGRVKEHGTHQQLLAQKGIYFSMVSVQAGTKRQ

[8] = homologous recombination repair

SMILES: O=c1[nH]cc(F)c(=O)[nH]1 [5FU]
combination effect with HDAC-C1A on growth inhibition (HCT116 cells [1]; HCT116, 72 hours): additive effect

SMILES: CN(C)CC[C@H](CSc1ccccc1)Nc1ccc(S(=O)(=O)NC(=O)c2ccc(N3CCN(Cc4ccccc4-c4ccc(Cl)cc4)CC3)cc2)cc1[N+](=O)[O-] [ABT-737]
combination effect with HDAC-C1A on growth inhibition (HCT116 cells [1]; HCT116, 72 hours): Synergistic effect

SMILES: Cn1c(=O)n(-c2ccc(C(C)(C)C#N)cc2)c2c3cc(-c4cnc5ccccc5c4)ccc3ncc21 [BEZ-235]
P-AKT levels, single agent (HCT116 cells [2]): dose dependent decrease | IC50 (HCT116 cells [2]; 4 hours treatment, read-out: IC50 for inhibition of P-AKT): 10 nM | IC50 (HCT116 cells [2]; added to Tubastatin A, read-out: IC50 for reversal of Tubastatin A-induced P-AKT): 10 nM | IC50 (HCT116 cells [2]; combined with 10 μM HDAC-C1A, read-out: IC50 for P-AKT when combined with HDAC-C1A): 50 nM | effect on acetylated status of α-tubulin and histones H3 and H4 (HCT116 cells [2]; added to Tubastatin A): No effect | reversal of the increase of Phospho-AKT mediated by HDAC-C1A (HCT116 cells [2]; co-incubated with HDAC-C1A): fully reverse | TGD2x [3]: 3.4 ± 1.9 days | TGI [3]: 21% | P-AKT in tumours (HCT116 tumours; 2 hours after treatment): Persistent inhibition | P-AKT in tumours (HCT116 tumours; by 30 minutes): rapid down-regulation | P-AKT in tumours (HCT116 tumours; from 6 hours post treatment): partial recovery to basal levels | combination effect with HDAC-C1A on growth inhibition (HCT116 cells [1]; HCT116, 72 hours): Synergistic effect

SMILES: CCN(CC)c1ccc(S(=O)(=O)Nc2ccc(/C=C(C)/C=C/C(=O)NO)cc2)cc1 [HDAC-C1B]
cytotoxic potency relative to HDAC-C1A [4]: approximately 1.5 fold

SMILES: COc1ccc(C2=N[C@@H](c3ccc(Cl)cc3)[C@@H](c3ccc(Cl)cc3)N2C(=O)N2CCNC(=O)C2)c(OC(C)C)c1 [Nutlin-3]
combination effect with HDAC-C1A on growth inhibition (HCT116 cells [1]; HCT116, 72 hours): additive effect

Papp A→B (in vitro): 14 ×10⁻⁶ cm/s
SMILES: O=C(CCCCCCC(=O)Nc1ccccc1)NO [SAHA, suberanoyl hydroxamic acid, reference compound]
acetylation markers at low concentration and early time point (HCT116 cells [5]; 1 μM and 4 hours): opposite | acetylation of histone H3, H4 and α-tubulin after washout (HCT116 cells [5]; treatment 4 hours, then washout): lost by 4 h | effect on P-AKT (HCT116 cells [2]; 10 μM): no effect | substrate of MRP1 (MRP1): non-substrates | effect of GSH on cytotoxicity (A2780 cells): antagonistic effect | acetyl form of PTEN (HCT116 cells [6]; 4 h and 24 h, 1 μM and 10 μM): no effect | concentration of LY-294002 needed to synergise (HCT116 cells [1]): greater than 4 μM | combination effect with rapamycin at ED50 (HCT116 cells [1]; concentrations below 7.5 μM): antagonistic effect

SMILES: CN1CCc2c(c3ccccc3n2Cc2ccc(C(=O)NO)cc2)C1 [Tubastatin A]
P-AKT (HCT116 cells [2]; Tubastatin A alone): time dependent increase | acetylated form of PTEN (HCT116 cells [6]; 24 hours of incubation): dose dependent increase | concentration of LY-294002 needed to synergise (HCT116 cells [1]): 0.1 µM | combination effect with inhibitors of the PI3K/AKT/mTOR pathway (HCT116 cells [1]; HCT116, 72 hours): synergises as well

SMILES: CC(C)C[C@H](NC(=O)[C@H](Cc1ccccc1)NC(=O)c1cnccn1)B(O)O [bortezomib]
combination effect with HDAC-C1A on growth inhibition (HCT116 cells [1]; HCT116, 72 hours): Synergistic effect

SMILES: O=C(O)CCCc1ccc(N(CCCl)CCCl)cc1 [chlorambucil, reference compound]
sensitivity (GI50 ratio) of cells deficient in XRCC3 vs proficient [7, 8]: 7.8 | sensitivity (GI50 ratio, fold) of cells deficient in XRCC2 vs proficient [7, 8]: > 100 | sensitivity (GI50 ratio, fold) of cells deficient in XRCC5 vs proficient ([7]; non homologous end joining): > 100 | sensitivity (GI50 ratio) of cells deficient in ERCC1 vs proficient ([7]; nucleotide excision repair): > 100 | impact of BSO on growth inhibition (GI50 ratio) (A549 cells): 8.5

SMILES: O=C1c2c(O)ccc(O)c2C(=O)c2c(NCCNCCO)ccc(NCCNCCO)c21 [mitoxantrone]
fold resistance (GI50 ratio) MCF7-MX vs parental MCF7 (ABCG2): 120 fold | reversal of resistance by FTC in MCF7-MX cells (ABCG2): 70 fold

fold resistance (GI50 ratio) P-gp over-expressing 3T3 vs parental (P-gp): > 100 fold
SMILES: CC[C@]1(O)C[C@@H]2CN(CCc3c([nH]c4ccccc34)[C@@](C(=O)OC)(c3cc4c(cc3OC)N(C)[C@H]3[C@@](O)(C(=O)OC)[C@H](OC(C)=O)[C@]5(CC)C=CCN6CC[C@]43[C@@H]65)C2)C1 [vinblastine]
